Where two headings read alike, the source gives them in different places.
Assays:
[1] = Goniophotometer Damage Assessing Protocol after Oxidative Hair Treatment Protocol With 10 Intermediate Washes; design: species or system human
Method: A bleaching composition comprising the chelant to be tested is prepared by mixing in equal weight amounts a hydrogen peroxide emulsion base and an alkaline (high pH) emulsion base. 2 g Of the bleaching composition per g of hair to be treated was applied on the hair switches and massaged in thoroughly. The hair switches were then wrapped in a plastic film and put in an oven at 30° C. […] The rinsing water flow was adjusted to 6 liters per minute). […] The excess water was then squeezed out of the hair, and the hair dried with a fan. […] Prell® shampoo was using during these tests. This Oxidative Hair Treatment Protocol can be repeated several times.

[2] = log Conditional Stability Constant at pH 10 with Ca
[3] = 25deg, 0.1M ionic strength; fully deprotonated chelants; cited from earlier work
[4] = Hydrogen Peroxide Decomposition Ratio Measurement Protocol; conditions: for Hydrogen Peroxide Decomposition Ratio (% Loss) / Peroxide % at t = 0 / Peroxide % at t = 30mn: pH 10, 300 ppm copper sulphate, 0.026M chelant; for Hydrogen Peroxide Decomposition Ratio (% Loss): after 30 minutes
Method: The Hydrogen Peroxide Decomposition Ratio Measurement Protocol is defined as follows: 6.0% by weight of concentrated ammonium hydroxide (30% active ammonia) is added to deionised water and the pH of the solution is adjusted to 10 using acetic acid. 300 ppm of copper sulphate and 0.026M of the chelant to be tested are added to said composition. […] The initial level of hydrogen peroxide is measured at this moment (t=0); the final level of hydrogen peroxide is measured after 30 minutes. The value of the ratio of the hydrogen peroxide concentration at t=0 and at t=30 mn is the Hydrogen Peroxide Decomposition Ratio (% Loss).
The initial and final level of hydrogen peroxide can be measured according to any standard technique. The following is a well-known and standard technique that was used by the inventors: 0.2-0.3 g (the exact quantity being precisely measured) of the solution to be titrated is added to 40 ml of 10% acetic acid. […] The level of hydrogen peroxide (% Peroxide) is then calculated from the following equation: [formula]
Three replicate runs are made at both t=0 and t=30 mn and then averaged to calculate the Hydrogen Peroxide Decomposition Ratio (% Loss).

[5] = tetra-protonated chelants; cited from earlier work
[6] = log Conditional Stability Constant at pH 10 with Cu; conditions: for Ratio Cu/Ca of log Conditional Stability Constants: log KCuL / log KCaL
[7] = FT-IR Damage Assessing Protocol after 5-Cycle Oxidative Hair Treatment Protocol With 2 Intermediate Washes; design: species or system human; conditions: for Damage after 5 cycles (cysteic acid units): 2 intermediate washes, pH 10
Method: For each chelant tested, seven switches of virgin dark hair were used. […] The switches usually weighed about 1.5 g each and are treated stepwise according to the following protocol.
A bleaching composition comprising the chelant to be tested is prepared by mixing in equal weight amounts a hydrogen peroxide emulsion base and an alkaline (high pH) emulsion base.
2 g Of the bleaching composition per g of hair to be treated was applied on the hair switches and massaged in thoroughly. The hair switches were then wrapped in a plastic film and put in an oven at 30° C. After 30 mn, they were removed from the oven and from the wrapping film and rinsed for 1 mn in water. 0.1 g of shampoo per g. of hair was then added and milked for 30 s at a rate of at least 150 strokes a minute before rinsing for 30 s. […] The concentration of copper (Cu^2+) ions was kept at about 1 ppm (+/−10%), the exact concentrations being measured by a standard analytic method. The rinsing water flow was adjusted to 6 liters per minute). The same shampooing and rinsing process was repeated another time (this is the “Oxidative Hair Treatment Protocol With 2 Intermediate Washes” referred to in the claims) or 9 additional times (this is the “Oxidative Hair Treatment Protocol With 10 Intermediate Washes” referred to in the claims) depending on the Damage Assessment Protocol used. The excess water was then squeezed out of the hair, and the hair dried with a fan. Any standard shampoo can be used in this protocol as long as it is free from transition metal ions such as copper ion and that the level chelants is less than 0.1% by weight of the shampoo. Prell® shampoo was using during these tests.
This Oxidative Hair Treatment Protocol can be repeated several times. […] This process is described as a 5-Cycle Oxidative Hair Treatment Protocol With 2 or 10 Intermediate Washes.
In particular, these authors have shown that the method is suitable for quantifying the amount of cysteic acid that is produced from the oxidation of cystine. In general, the oxidation of cystine is thought to be a suitable marker by which to monitor the overall oxidation of the keratinous part of the fiber.
They have shown that this technique is more suitable than using the FT-IR method in simple transmission or microscope modes. […] The detailed description of the method used for testing the different damage inhibitors follows thereafter:
A Perkin Elmer Spectrum® 1 Fourier Transform Infrared (FTIR) system equipped with a diamond Attenuated Total Internal Reflection (ATR) cell was used to measure the cysteic acid concentration in human hair. In this method, hair switches of various sizes and colours can be used. The switches were platted (˜1 plait per cm) in order to minimize variations in surface area of contact between readings. The Oxidative Hair Treatment Protocol described above was repeated for 5 cycles to mimic the behavior of hair after repeated bleaching cycles. Following this treatment, four readings per switch were taken (˜⅓ and ⅔ s down the switch on both sides), and an average calculated. Backgrounds were collected every 4 readings, and an ATR cell pressure of 1N/m was employed. The cell was cleaned with ethanol between each reading, and a contamination check performed using the monitor ratio mode of the instrument. […] The original spectra were initially converted to absorbance, before being normalized to the 1450 cm^−1 band (the characteristic and invariant protein CH2 stretch). This normalized absorbance was then twice derivatised using a 13 point averaging. The value of the 1450 cm^−1 normalized 2nd derivative of the absorbance at 1040 cm^−1 was taken as the relative concentration of cysteic acid. This figure was multiplied by −1×10^−4 to recast it into suitable units. […] The following instrumental conditions were employed:
The weight percentages for each chelant are indicated in the first line of the table below.

[8] = 25deg, 0.1M ionic strength; fully deprotonated chelants; cited from earlier work; remark: listed apart in the source
[9] = not given; remark: listed apart in the source
[10] = 2.0% weight on-head (tetra-sodium EDTA, di-sodium HEDP), 5 cycles
[11] = 3.8% weight on-head, tetra-sodium salt, 5 cycles
[12] = 1.9% weight on-head, tri-sodium salt, 5 cycles

| log Conditional Stability Constant (pH 10) Ca [2] | log Conditional Stability Constant (pH 10) Cu [6] | Ratio Cu/Ca of log Conditional Stability Constants [6] | Compound | log K (stability constant, 1:1 complex) Ca [3] | Hydrogen Peroxide Decomposition Ratio (% Loss) [4] [%] | Peroxide % at t = 0 [4] [%] | Peroxide % at t = 30mn [4] [%] | log protonation constant H2L^2− [5] | log protonation constant H3L^− [5] | log protonation constant H4L [5] | log protonation constant HL^3− [5] | Damage after 5 cycles (cysteic acid units) [7, 10] [cysteic acid units] | log K (stability constant, 1:1 complex) Cu [8] | further results |
| --- | --- | --- | --- | --- | --- | --- | --- | --- | --- | --- | --- | --- | --- | --- |
| 5.13 | 8.98 | 1.75 | CC(O)(P(=O)(O)O)P(=O)(O)O [HEDP, 1-hydroxyethane-1,1-diphosphonic acid] | 6.0 | 32.3 | 4.126 | 2.792 | 6.88 | 2.53 | 1.8 | 10.8 | 163 | 11.84 | Normalized shine ratio (hair treated after 9 cycles/ virgin hair) ([1]; 1.0 weight % (tetra-sodium EDTA, di-sodium HEDP)): 0.730; Damage benefit vs EDTA 2% ([7]; 2.0% weight on-head, di-sodium salt, 5 cycles): +1% |
| 4.27 | 16.04 | 3.76 | O=C(O)CC(NCCNC(CC(=O)O)C(=O)O)C(=O)O (stereo not drawn) [EDDS, ethylenediamine-N,N′-disuccinic acid] | 4.58 | 1.5 | 3.150 | 3.104 | 6.84 | 3.86 | 2.95 | 10.01 | – | 18.35 | Normalized shine ratio (hair treated after 9 cycles/ virgin hair) ([1]; 0.95 weight %, tri-sodium salt): 1.03; Hair damage compared with any other chelant (in words) ([7]; 1.9% by weight, 5 cycles): much less damage; Damage benefit vs EDTA 2% [7, 12]: +33%; Damage after 5 cycles (cysteic acid units) [7, 12]: 110 cysteic acid units; Damage benefit (in words) ([7]; concentrations much lower than 1.9% by weight on head): excellent benefits |
| – | 16.37 | – | O=C(O)CN(CCN(CC(=O)O)CC(=O)O)CC(=O)O [EDTA, ethylenediaminetetraacetic acid] | 10.65 | – | 3.576 | 3.573 | – | – | – | – | 165 | 18.78 | Capacity at inhibiting the red-ox chemistry of copper (in words) ([4]; lab condition, de-ionized water): very good capacity; Damage prevention properties (in words) ([7]; real conditions of use, high copper and Ca^2+ concentrations): very poor damage prevention properties; Damage benefit (in words) ([7]; unless utilized at levels much higher than 0.1%): very little benefits |

More lines, now with the values behind:

| Compound | log Conditional Stability Constant (pH 10) Ca [2] | log Conditional Stability Constant (pH 10) Cu [6] | Ratio Cu/Ca of log Conditional Stability Constants [6] | log K (stability constant, 1:1 complex) Ca [3] | Hydrogen Peroxide Decomposition Ratio (% Loss) [4] [%] | Peroxide % at t = 0 [4] [%] | Peroxide % at t = 30mn [4] [%] | log protonation constant H2L^2− [5] | log protonation constant H3L^− [5] | log protonation constant H4L [5] | log protonation constant HL^3− [5] | Damage after 5 cycles (cysteic acid units) [7, 10] [cysteic acid units] | log K (stability constant, 1:1 complex) Cu [8] | further results |
| --- | --- | --- | --- | --- | --- | --- | --- | --- | --- | --- | --- | --- | --- | --- |
| O=P(O)(O)CN(CCN(CP(=O)(O)O)CP(=O)(O)O)CCN(CP(=O)(O)O)CP(=O)(O)O [DTPMP, diethylene-triamine-penta-(methylenephosphonic acid)] | – | – | – | – | – | 3.078 | 2.964 | – | – | – | – | – | – | log Conditional Stability Constant (pH 10) Cu: 15.14; Damage benefit vs EDTA 2% [7, 11]: +14%; Damage after 5 cycles (cysteic acid units) [7, 11]: 142 cysteic acid units; log Conditional Stability Constant (pH 10) Ca [9]: 4.74 |
| CC(C(=O)O)N(CC(=O)O)CC(=O)O (stereo not drawn) [MGDA, methylglycinediacetic acid] | – | – | – | – | 11.3 | 3.498 | 3.104 | – | – | – | – | – | – | – |
| O=C(O)CC(NCC(O)CNC(CC(=O)O)C(=O)O)C(=O)O (stereo not drawn) [HPPDS, 2-hydroxypropylenediamine-N,N′-disuccinic acid] | – | – | – | – | – | – | – | – | – | – | – | – | – | Normalized shine ratio (hair treated after 9 cycles/ virgin hair) ([1]; 0.97 weight %, tetra-sodium salt): 1.00 |

Reference: patent US20070107143A1, “Oxidative treatment of hair with reduced hair damage” (priority 2001, published 2007)
